Test results as given in PMC7267738 (iScience, 2020).

Legend:
[1] = target: purified recombinant c-Met kinase domains (Homo sapiens, UniProt P08581); experiment: Biochemical kinase assay
[2] = target: c-Met (Homo sapiens, UniProt P08581); type: cell-based
c-Met, sequence (P08581 25-1390): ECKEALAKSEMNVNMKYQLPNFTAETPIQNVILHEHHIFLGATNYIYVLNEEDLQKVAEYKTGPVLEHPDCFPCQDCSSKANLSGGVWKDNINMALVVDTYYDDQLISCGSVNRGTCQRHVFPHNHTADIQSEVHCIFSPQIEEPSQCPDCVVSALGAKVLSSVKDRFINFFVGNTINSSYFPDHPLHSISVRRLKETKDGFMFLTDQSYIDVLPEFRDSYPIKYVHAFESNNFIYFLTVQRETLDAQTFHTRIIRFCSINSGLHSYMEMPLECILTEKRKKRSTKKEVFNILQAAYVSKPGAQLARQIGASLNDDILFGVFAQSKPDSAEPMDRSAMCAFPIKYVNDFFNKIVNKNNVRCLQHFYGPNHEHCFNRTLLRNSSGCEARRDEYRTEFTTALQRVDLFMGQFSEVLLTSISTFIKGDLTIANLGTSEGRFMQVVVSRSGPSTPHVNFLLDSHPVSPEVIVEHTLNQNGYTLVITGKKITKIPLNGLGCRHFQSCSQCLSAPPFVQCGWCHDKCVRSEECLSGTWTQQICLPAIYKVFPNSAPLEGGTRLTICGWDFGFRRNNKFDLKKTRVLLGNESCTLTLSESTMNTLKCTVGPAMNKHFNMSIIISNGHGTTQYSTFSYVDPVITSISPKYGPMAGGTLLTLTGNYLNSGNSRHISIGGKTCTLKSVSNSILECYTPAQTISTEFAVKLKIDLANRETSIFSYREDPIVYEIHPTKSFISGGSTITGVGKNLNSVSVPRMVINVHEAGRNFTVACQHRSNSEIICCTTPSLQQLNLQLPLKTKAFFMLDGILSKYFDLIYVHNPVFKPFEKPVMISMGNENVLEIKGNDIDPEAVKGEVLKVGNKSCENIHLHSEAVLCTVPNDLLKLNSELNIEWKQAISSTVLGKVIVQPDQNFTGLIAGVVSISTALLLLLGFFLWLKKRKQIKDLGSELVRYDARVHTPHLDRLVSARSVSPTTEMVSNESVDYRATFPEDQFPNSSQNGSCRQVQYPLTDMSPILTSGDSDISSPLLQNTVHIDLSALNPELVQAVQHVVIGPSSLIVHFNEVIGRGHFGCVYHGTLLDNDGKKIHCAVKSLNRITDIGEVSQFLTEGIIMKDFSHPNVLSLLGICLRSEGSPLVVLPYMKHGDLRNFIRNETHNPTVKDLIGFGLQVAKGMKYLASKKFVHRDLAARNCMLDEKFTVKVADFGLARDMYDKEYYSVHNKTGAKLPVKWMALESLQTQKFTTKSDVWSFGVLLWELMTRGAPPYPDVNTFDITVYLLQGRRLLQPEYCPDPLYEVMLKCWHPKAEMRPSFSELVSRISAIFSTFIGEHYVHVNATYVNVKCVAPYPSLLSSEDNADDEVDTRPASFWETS

purified recombinant c-Met kinase domains, sequence (P08581 1078-1345 limits assumed): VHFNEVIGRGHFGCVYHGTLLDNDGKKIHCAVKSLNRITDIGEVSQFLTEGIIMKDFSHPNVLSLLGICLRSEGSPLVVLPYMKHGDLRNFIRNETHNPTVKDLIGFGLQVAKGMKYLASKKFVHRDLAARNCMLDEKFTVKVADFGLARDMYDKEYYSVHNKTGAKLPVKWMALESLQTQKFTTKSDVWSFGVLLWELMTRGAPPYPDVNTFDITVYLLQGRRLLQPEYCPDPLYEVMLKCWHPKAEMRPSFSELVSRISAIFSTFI

- IC50 [1]: 0.0403 µM
- IC50 [2]: 25 µM
Compound: COc1cc2ncnc(Oc3ccc(Nc4nccc5[nH]cc(-c6ccc(C(F)(F)F)cc6)c(=O)c45)cc3F)c2cc1OC [Compound 5d]
